Drawing on DBAASP, this text covers MIC for 9 compounds.

Experiment in all cases: ≥ marks a high value that may be exact or a test limit, other limits are often not marked, values filed in µg/mL are converted to µM
The test system of one assay is Bacillus subtilis.
The test system of assay [1] is Escherichia coli DH5alpha.
A further assay has as its system Staphylococcus aureus.
In assay [2] the test system is Escherichia coli ATCC 25922.
In assay [3] the test system is Klebsiella pneumoniae ATCC 13883.
Assay [4] deals with Pseudomonas aeruginosa PAO1.
The test system of assay [5] is Staphylococcus aureus USA 300.
The test system of assay [6] is Bacillus subtilis ATCC 6051.
Assay [7] has as its system Staphylococcus aureus NCTC 8325.

Values after ≈ are worked out from the molar mass of the structure shown.

As to `CC[C@H](C)[C@H](NC(=O)CN)C(=O)NCC(=O)N[C@@H](C)C(=O)N[C@H](C(=O)N[C@@H](CC(C)C)C(=O)N[C@@H](CCCCN)C(=O)N[C@H](C(=O)N[C@@H](CC(C)C)C(=O)N[C@H](C(=O)N[C@H](C(=O)NCC(=O)N[C@@H](C)C(=O)N1CCC[C@H]1C(=O)N[C@@H](C)C(=O)N[C@@H](CC(C)C)C(=O)N[C@H](C(=O)N[C@@H](CO)C(=O)N[C@@H](Cc1c[nH]c2ccccc12)C(=O)N[C@H](C(=O)N[C@@H](CCCCN)C(=O)N[C@@H](CCCN=C(N)N)C(=O)N[C@@H](CCCCN)C(=O)N[C@@H](CCCN=C(N)N)C(=O)N[C@@H](CCC(N)=O)C(=O)N[C@@H](CCC(N)=O)C(N)=O)[C@@H](C)CC)[C@@H](C)CC)[C@@H](C)O)[C@@H](C)O)C(C)C)C(C)C` [GIGAVLKVLTTGAPALISWIKRKRQQ], the results for the MIC (in the assay with Bacillus subtilis; in assay [1]; against Staphylococcus aureus) were 2.4 µM (≈ 6.73 µg/mL), 4.5 µM (≈ 12.6 µg/mL) and 4.3 µM (≈ 12.1 µg/mL), respectively.

For the compound `CC(C)C[C@H](NC(=O)[C@H](CC(C)C)NC(=O)[C@H](CCCCN)NC(=O)CNC(=O)[C@H](CC(C)C)NC(=O)[C@H](C)NC(=O)[C@H](CCCCN)NC(=O)[C@H](CC(C)C)NC(=O)[C@H](C)NC(=O)[C@H](CO)NC(=O)[C@H](CC(C)C)NC(=O)[C@H](CC(C)C)NC(=O)CN)C(N)=O` [GLLSALKALGKLL], the MIC was 3.1 µM (≈ 4.02 µg/mL) in [2], 3.1 µM (≈ 4.02 µg/mL) in [3], above 25 µM in assay [4] and 1.56 µM (≈ 2.02 µg/mL) in assay [5].

Consider `CC[C@H](C)[C@H](NC(=O)[C@H](CC(N)=O)NC(=O)[C@H](CC(N)=O)NC(=O)CNC(=O)[C@H](CCC(=O)O)NC(=O)[C@H](CC(N)=O)NC(=O)[C@H](CCC(=O)O)NC(=O)[C@H](CCC(N)=O)NC(=O)[C@H](CCC(=O)O)NC(=O)[C@H](CCC(=O)O)NC(=O)[C@@H](N)CCCCN)C(=O)N[C@@H](Cc1ccccc1)C(=O)N[C@H](C(=O)N[C@@H](CC(N)=O)C(=O)N[C@@H](CCCN=C(N)N)C(=O)N[C@@H](Cc1cnc[nH]1)C(=O)N[C@H](C(=O)N[C@H](C(=O)N[C@@H](CC(=O)O)C(=O)N[C@@H](CCCCN)C(=O)N[C@@H](CC(C)C)C(=O)O)C(C)C)[C@@H](C)CC)C(C)C` [KEEQENEGNNIFVNRHIVDKL], for which the minimal inhibitory concentration (MIC) in [6] was at least 1000 µM.

For `CC[C@H](C)[C@H](NC(=O)[C@H](C)NC(=O)[C@@H]1CCCN1C(=O)[C@H](CC(C)C)NC(=O)[C@@H](N)Cc1ccccc1)C(=O)N[C@H](C(=O)NCC(=O)N[C@@H](C)C(=O)N[C@@H](C)C(=O)N[C@@H](C)C(=O)N[C@@H](CCCCN)C(=O)N[C@@H](Cc1ccccc1)C(=O)N[C@@H](CC(C)C)C(=O)N1CCC[C@H]1C(=O)N[C@@H](CCCCN)C(=O)N[C@H](C(=O)N[C@@H](Cc1ccccc1)C(=O)N[C@H]1CSSC[C@@H](C(=O)O)NC(=O)[C@H](CCCCN)NC(=O)[C@H](CCCCN)NC(=O)[C@H](CO)NC(=O)[C@H]([C@@H](C)CC)NC(=O)[C@H](C(C)C)NC1=O)[C@@H](C)CC)C(C)C` [FLPAIVGAAAKFLPKIFCVISKKC], the MIC in assay [2] turned out to be 15 µM (≈ 38.4 µg/mL); in assay [7], 3 µM (≈ 7.69 µg/mL).

As for `CC[C@H](C)[C@@H]1NC(=O)[C@H](C)NC(=O)[C@@H](NC(=O)[C@H](Cc2ccccc2)NC(=O)[C@@H](NC(=O)[C@H](CCCCN)NC(=O)[C@@H]2CCCN2C(=O)[C@H](CC(C)C)NC(=O)[C@H](Cc2ccccc2)NC(=O)[C@H](CC(N)=O)NC(=O)[C@H](C)NC(=O)[C@H](C)NC(=O)[C@H](CCSC)NC(=O)CNC(=O)[C@H](C)NC(=O)[C@@H](NC(=O)[C@H](Cc2ccccc2)NC(=O)[C@@H]2CCCN2C(=O)[C@H](CC(C)C)NC(=O)[C@@H](N)Cc2ccccc2)[C@@H](C)CC)[C@@H](C)CC)CSSC[C@@H](C(=O)O)NC(=O)[C@H](CCCCN)NC(=O)[C@H](CCCCN)NC(=O)[C@H](CO)NC1=O` [FLPFIAGMAANFLPKIFCAISKKC], the MIC in assay [2] came out at 19 µM (≈ 50 µg/mL); in assay [7] it was 8 µM (≈ 21 µg/mL).

With `CC[C@H](C)[C@H](NC(=O)CN)C(=O)N[C@@H](Cc1ccccc1)C(=O)N[C@H](C(=O)N[C@@H](CCCCN)C(=O)N[C@H](C(=O)N[C@@H](CC(N)=O)C(=O)N[C@@H](CCCCN)C(=O)N[C@@H](CCCCN)C(=O)N[C@@H](CCCCN)C(=O)N[C@@H](C)C(=O)N[C@@H](CCCCN)C(=O)N[C@H](C(=O)NCC(=O)N[C@H](C(=O)N[C@@H](Cc1ccccc1)C(=O)N[C@@H](CC(N)=O)C(=O)N[C@H](C(=O)N[C@H](C(=O)N[C@@H](CCCCN)C(=O)N[C@H](C(=O)N[C@H](C(=O)NCC(=O)N[C@@H](CCCCN)C(=O)N[C@@H](CCC(=O)O)C(=O)N[C@@H](C)C(=O)NCC(=O)N[C@@H](CCSC)C(=O)N[C@@H](CC(=O)O)C(=O)N[C@H](C(=O)N[C@H](C(=O)N[C@@H](CCCN=C(N)N)C(=O)N[C@@H](C)C(=O)NCC(=O)N[C@H](C(=O)N[C@@H](CC(=O)O)C(=O)N[C@H](C(=O)N[C@H](C(=O)N[C@@H](CO)C(=O)N[C@H]1CSSC[C@@H](C(=O)O)NC(=O)[C@H](CCC(=O)O)NC(=O)CNC(=O)[C@H](CCCCN)NC(=O)[C@H]([C@@H](C)CC)NC(=O)[C@H](CCCCN)NC1=O)[C@@H](C)CC)[C@@H](C)O)[C@@H](C)CC)[C@@H](C)CC)C(C)C)[C@@H](C)CC)[C@@H](C)O)[C@@H](C)CC)[C@@H](C)CC)C(C)C)[C@@H](C)O)[C@@H](C)CC)[C@@H](C)O` [GIFTKINKKKAKTGVFNIIKTIGKEAGMDVIRAGIDTISCKIKGEC], the minimal inhibitory concentration (MIC) in assay [2] was found to be 1 µM (≈ 4.94 µg/mL); in assay [7] it was 15 µM (≈ 74.1 µg/mL).

In the case of `CC[C@H](C)[C@H](NC(=O)[C@H](CC(C)C)NC(=O)[C@@H]1CCCN1C(=O)[C@H](CC(C)C)NC(=O)[C@@H](NC(=O)[C@@H](N)Cc1ccccc1)[C@@H](C)CC)C(=O)N[C@@H](C)C(=O)N[C@@H](CO)C(=O)N[C@@H](Cc1ccccc1)C(=O)N[C@@H](CC(C)C)C(=O)N[C@@H](CO)C(=O)N[C@@H](CCCCN)C(=O)N[C@@H](Cc1ccccc1)C(=O)N[C@@H](CC(C)C)C(N)=O` [FILPLIASFLSKFL], in assay [7], the MIC was found to be 12 µM (≈ 19.3 µg/mL).

In assay [7], `CC[C@H](C)[C@H](NC(=O)[C@@H](NC(=O)[C@@H]1CCCN1C(=O)[C@H](CC(C)C)NC(=O)[C@@H](N)Cc1ccccc1)[C@@H](C)CC)C(=O)N[C@@H](C)C(=O)N[C@@H](CCCCN)C(=O)N[C@H](C(=O)N[C@@H](CC(C)C)C(=O)N[C@@H](CO)C(=O)NCC(=O)N[C@@H](CC(C)C)C(=O)N[C@@H](CC(C)C)C(N)=O)C(C)C` [FLPIIAKVLSGLL] yielded an MIC of 15 µM (≈ 20.7 µg/mL).

On to `CC[C@@H](C)[C@H](N=C(O)[C@H](CO)N=C(O)C(CC(C)C)N=C(O)[C@H](CCSC)N=C(O)[C@@H]1CCCN1C(=O)[C@H](CC(C)C)N=C(O)CN=C(O)[C@H](N)Cc1ccccc1)C(O)=N[C@H](CC(C)C)C(=O)N1CCCC1C(O)=N[C@H](CCCCN)C(O)=N[C@H](C)C(O)=N[C@H](CC(C)C)C(O)=N[C@H](CS)C(O)=N[C@H](C(O)=N[C@H](CC(C)C)C(O)=N[C@H](CC(C)C)C(O)=N[C@H](CCCCN)C(O)=N[C@H](CCCNC(=N)N)C(O)=N[C@H](CCCCN)C(O)=N[C@H](CS)C(=O)O)[C@H](C)CC` (stereo partly drawn) [FGLPMLSILPKALCILLKRKC], for which the figures for the MIC in assay [2] and in assay [7] were 12 µM (≈ 28.3 µg/mL) and 20 µM (≈ 47.2 µg/mL), respectively.
